# Experiments:
# h-GABA-A α5β3γ2 [1] = biological target: T1, h-GABA-A α5β3γ2 (Homo sapiens, UniProt P18507+P31644); assay: Two-electrode voltage clamp electrophysiology in Xenopus laevis oocytes expressing GABAA receptors, modulation of GABA EC20 current; assay type: cell-based; design: host or cells: Xenopus laevis oocytes micro-injected with RNA transcripts of the subunits; details: Table 1; for Efficacy (GABA) %: % modulation of GABA EC20 = 100*(Fold increase-1); for Fold increase h-GABA-A α5β3γ2 oocyte: test compound at approx. 30 fold its Ki, GABA at EC20
# How it was run: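 Modulation is reported as % of the GABA EC20 current, calculated as 100*(Fold increase−1) from the peak ratio between a second GABA response carrying compound (applied at roughly 30-fold Ki) and a preceding control response. Oocytes expressing human α5β3γ2 were clamped at −80 mV at room temperature, 3–5 days after injection.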
# h-GABA-A α5β3γ2 [2] = biological target: T1, h-GABA-A α5β3γ2; assay: [3H]flumazenil competition binding assay, membranes of HEK293 cells expressing GABAA receptors; details: displacement of [3H]-Flumazenil 0.5 nM, HEK293 cells expressing human receptors, mean of two determinations; Table 1
# How it was run: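 Receptor source: human α5β3γ2 transiently transfected into HEK293 cells, membranes in pH 7.5 Krebs-tris. Filtration through GF/C, then scintillation counting.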
SMILES,Efficacy (GABA) % (h-GABA-A α5β3γ2 [1]) [%],Fold increase h-GABA-A α5β3γ2 oocyte (h-GABA-A α5β3γ2 [1]),Ki (h-GABA-A α5β3γ2 [2]) [nM]
"Cc1ccc(-c2noc(C)c2Cn2ncc(N3CCC4(CCOCC4)CC3)cc2=O)cn1 [Example 226, 2-((5-methyl-3-(6-methylpyridin-3-yl)isoxazol-4-yl)methyl)-5-(3-oxa-9-azaspiro[5.5]undecan-9-yl)pyridazin-3(2H)-one]",95,1.95,13
Cc1ccc(-c2noc(C)c2Cn2ncc(-c3ccc(C(F)(F)F)cc3)cc2=O)cn1 [Example 83],50,1.5,17.2
"Cc1ccc(-c2noc(C)c2Cn2ncc(N(C)CC(C)(C)O)cc2=O)cn1 [Example 70, 5-((2-hydroxy-2-methylpropyl)(methyl)amino)-2-((5-methyl-3-(6-methylpyridin-3-yl)isoxazol-4-yl)methyl)pyridazin-3(2H)-one]",106,2.06,0.6
"Cc1ccc(-c2noc(C3CC3)c2Cn2ncc(N3CC4(CCCCO4)C3)cc2=O)nn1 [Example 259, 2-[[5-cyclopropyl-3-(6-methylpyridazin-3-yl)isoxazol-4-yl]methyl]-5-(5-oxa-2-azaspiro[3.5]nonan-2-yl)pyridazin-3-one]",193,2.93,36.2
"Cc1ccc(-c2noc(C)c2Cn2ncc(N3CC4(CCC(F)CO4)C3)cc2=O)nn1 (single isomer, unassigned) [Example 319]",91,1.91,1
"Cc1ccc(-c2noc(C)c2Cn2ncc(N3CC(Oc4ccc(Cl)cn4)C3)cc2=O)cn1 [Example 130, 5-[3-[(5-chloro-2-pyridyl)oxy]azetidin-1-yl]-2-[[5-methyl-3-(6-methyl-3-pyridyl)isoxazol-4-yl]methyl]pyridazin-3-one]",187,2.87,25.1
"Cc1ccc(-c2noc(C)c2Cn2ncc(N(C)C3COC3)cc2=O)cn1 [Example 65, 5-(methyl(oxetan-3-yl)amino)-2-((5-methyl-3-(6-methylpyridin-3-yl)isoxazol-4-yl)methyl)pyridazin-3(2H)-one]",142,2.42,4.7
"Cc1onc(-c2ccc(Cl)nc2)c1Cn1ncc(N2CCC3(CC2)CC(F)CCO3)cc1=O (single isomer, unassigned) [Example 330]",159,2.59,48.8
"Cc1ccc(-c2noc(C)c2Cn2ncc(N3C[C@@H](C)O[C@H](C)C3)cc2=O)cn1 (single isomer, unassigned) [Example 30, 5-[(2R,6R)-2,6-dimethylmorpholin-4-yl]-2-[[5-methyl-3-(6-methyl-3-pyridyl)isoxazol-4-yl]methyl]pyridazin-3-one or enantiomer]",216,3.16,0.5
"Cc1ccc(-c2noc(C)c2Cn2ncc(N3C[C@H](C)O[C@@H](C)C3)cc2=O)cn1 (single isomer, unassigned) [Example 29, 5-[(2S,6S)-2,6-dimethylmorpholin-4-yl]-2-[[5-methyl-3-(6-methyl-3-pyridyl)isoxazol-4-yl]methyl]pyridazin-3-one or enantiomer]",228,3.28,1.4
"Cc1ccc(-c2noc(C)c2Cn2ncc(N3CC[C@H](O)C3)cc2=O)cn1 [Example 4, 5-[(3S)-3-hydroxypyrrolidin-1-yl]-2-[[5-methyl-3-(6-methyl-3-pyridyl)isoxazol-4-yl]methyl]pyridazin-3-one]",145,2.45,8.6
"O=C(C1CC1)N1CCN(c2cnn(Cc3c(-c4ccc(Cl)cn4)noc3C3CC3)c(=O)c2)CC1 [Example 25, 2-((3-(5-Chloropyridin-2-yl)-5-cyclopropylisoxazol-4-yl)methyl)-5-(4-(cyclopropanecarbonyl)piperazin-1-yl)pyridazin-3(2H)-one]",266,3.66,12.5
"Cc1ccc(-c2noc(C)c2Cn2ncc(N3CC(Oc4ccnc(Cl)c4)C3)cc2=O)cn1 [Example 147, 5-[3-[(2-chloro-4-pyridyl)oxy]azetidin-1-yl]-2-[[5-methyl-3-(6-methyl-3-pyridyl)isoxazol-4-yl]methyl]pyridazin-3-one]",170,2.7,12
"Cc1ccc(-c2noc(C)c2Cn2ncc(N3CC(Oc4ccccc4)C3)cc2=O)cn1 [Example 94, 2-[[5-methyl-3-(6-methyl-3-pyridyl)isoxazol-4-yl]methyl]-5-(3-phenoxyazetidin-1-yl)pyridazin-3-one]",136,2.36,7.8
"Cc1onc(-c2ncc(Cl)cc2F)c1Cn1ncc(N2C[C@@H](C)O[C@@H](C)C2)cc1=O [Example 52, 2-[[3-(5-chloro-3-fluoro-2-pyridyl)-5-methyl-isoxazol-4-yl]methyl]-5-(cis-2,6-dimethylmorpholin-4-yl)pyridazin-3-one]",135,2.35,0.7
"Cc1ccc(-c2noc(C)c2Cn2ncc(-c3ccc4ncc(C)n4c3)cc2=O)cn1 [Example 218, 2-((5-methyl-3-(6-methylpyridin-3-yl)isoxazol-4-yl)methyl)-5-(3-methylimidazo[1,2-a]pyridin-6-yl)pyridazin-3(2H)-one]",84,1.84,19.8
"Cc1ccc(-c2noc(C)c2Cn2ncc(N3CC4(CC(OC(F)F)C4)C3)cc2=O)nn1 [Example 315, 5-[6-(difluoromethoxy)-2-azaspiro[3.3]heptan-2-yl]-2-[[5-methyl-3-(6-methylpyridazin-3-yl)isoxazol-4-yl]methyl]pyridazin-3-one]",140,2.4,4
"Cc1ccc(-c2noc(C)c2Cn2ncc(N3CCC(n4ccnc4C)CC3)cc2=O)cn1 [Example 110, 5-[4-(2-methylimidazol-1-yl)-1-piperidyl]-2-[[5-methyl-3-(6-methyl-3-pyridyl)isoxazol-4-yl]methyl]pyridazin-3-one]",142,2.42,1.2
